# From ChEMBL document CHEMBL3259765, “ProTides of N-(3-(5-(2'-deoxyuridine))prop-2-ynyl)octanamide as potential anti-tubercular and anti-viral agents” (Bioorg Med Chem, 2014)
# Test system: Mycobacterium tuberculosis variant bovis BCG
# Experiment: Antibacterial activity against Mycobacterium bovis BCG ATCC 35734 up to 2 weeks by HT-SPOTi assay
# Type: functional
# Settings: ATCC 35734, 336 h
structure (smiles),measurement,value
CCCCCCCC(=O)NCC#Cc1cn([C@H]2C[C@H](O)[C@@H](CO)O2)c(=O)[nH]c1=O,MIC,> 250 µg/mL
CCCCCCCC(=O)NCC#Cc1cn([C@H]2C[C@H](O)[C@@H](COP(=O)(N[C@@H](C)C(=O)OC)Oc3cccc4ccccc34)O2)c(=O)[nH]c1=O (stereo partly drawn),MIC,62.5 µg/mL
CCCCCCCC(=O)NCC#Cc1cn([C@H]2C[C@H](O)[C@@H](COP(=O)(N[C@@H](C)C(=O)OCC)Oc3cccc4ccccc34)O2)c(=O)[nH]c1=O (stereo partly drawn),MIC,125 µg/mL
CCCCCCCC(=O)NCC#Cc1cn([C@H]2C[C@H](O)[C@@H](COP(=O)(N[C@@H](C)C(=O)OCC(C)C)Oc3cccc4ccccc34)O2)c(=O)[nH]c1=O (stereo partly drawn),MIC,125 µg/mL
CCCCCCCC(=O)NCC#Cc1cn([C@H]2C[C@H](O)[C@@H](COP(=O)(N[C@@H](C)C(=O)OCc3ccccc3)Oc3cccc4ccccc34)O2)c(=O)[nH]c1=O (stereo partly drawn),MIC,250 µg/mL
CCCCCCCC(=O)NCC#Cc1cn([C@H]2C[C@H](O)[C@@H](COP(=O)(N[C@@H](C)C(=O)OC)Oc3ccccc3)O2)c(=O)[nH]c1=O (stereo partly drawn),MIC,> 250 µg/mL
CCCCCCCC(=O)NCC#Cc1cn([C@H]2C[C@H](O)[C@@H](COP(=O)(N[C@@H](C)C(=O)OCC)Oc3ccccc3)O2)c(=O)[nH]c1=O (stereo partly drawn),MIC,250 µg/mL
CCCCCCCC(=O)NCC#Cc1cn([C@H]2C[C@H](O)[C@@H](COP(=O)(N[C@@H](C)C(=O)OCCC)Oc3ccccc3)O2)c(=O)[nH]c1=O (stereo partly drawn),MIC,125 µg/mL
CCCCCCCC(=O)NCC#Cc1cn([C@H]2C[C@H](O)[C@@H](COP(=O)(N[C@@H](C)C(=O)OCc3ccccc3)Oc3ccccc3)O2)c(=O)[nH]c1=O (stereo partly drawn),MIC,125 µg/mL
CCCCCCCC(=O)NCC#Cc1cn([C@H]2C[C@H](O)[C@@H](COP(=O)(N[C@H](C)C(=O)OCc3ccccc3)Oc3ccccc3)O2)c(=O)[nH]c1=O (stereo partly drawn),MIC,62.5 µg/mL
CCCCCCCC(=O)NCC#Cc1cn([C@H]2C[C@H](O)[C@@H](COP(=O)(NCC(=O)OCc3ccccc3)Oc3ccccc3)O2)c(=O)[nH]c1=O (stereo partly drawn),MIC,> 250 µg/mL
CCCCCCCC(=O)NCC#Cc1cn([C@H]2C[C@H](O)[C@@H](COP(=O)(NC(C)(C)C(=O)OCc3ccccc3)Oc3ccccc3)O2)c(=O)[nH]c1=O (stereo partly drawn),MIC,125 µg/mL
CCCCCCCC(=O)NCC#Cc1cn([C@H]2C[C@H](O)[C@@H](COP(=O)(N[C@H](C(=O)OCc3ccccc3)C(C)C)Oc3ccccc3)O2)c(=O)[nH]c1=O (stereo partly drawn),MIC,125 µg/mL
